From patent publication US20260109690A1, “HDAC6 INHIBITORS AND METHOD OF THEIR USE” (Baerenkraft Therapeutics, LLC., priority 2024, published 2026)

Columns and labels:
[1] = Tg2576 study: body weight; assay type: in vivo; settings: G3 Tg2576 mice, 50 mg/kg (80 mg/kg from day 36) p.o., in g (unit assumed)
Method: Compound I-16 (free base; purity of 98.77%) was tested in a vehicle of PEG 400 (30%), Tween 80 (2%), and water (68%) at a concentration of […]. Dose formulations were prepared every day prior to dose administration. Oral dosages of 50 mg/kg were used unless otherwise indicated. 80 mg/kg doses were similarly prepared at a concentration of 8 mg/mL Male mice aged 6 months were used. 30 total animals were used with 10 animals in each group and 3 groups total. Groups were separated according to the following parameters.
(§1) Mice were weighed and randomized into groups. All the test formulations were freshly administered to respective animals of each group as per body weight. Basal behavior of the animals was recorded and analyzed in open field, Y-Maze, and EPM. Post basal behavior, animals were treated with compound I-16 for the duration of 3 months (i.e., from 6 months until 9 months). During the treatment duration, animals were subjected to different behavioral tests such as OFT, Y-maze, and EPM at 7, 8 and 9 months. At the end of experiments (i.e., at 9 months) animals were subjected to Morris water maze test.

Tg2576 AD Disease Mice = experiment: Tg2576 study: open field test; assay type: in vivo; settings: for Open Field Test time spent in Central zone / Open Field Test time spent in Peripheral zone: G3 Tg2576 mice
Method: as §1
Prior to the treatment initiation at […], animals were subjected to open field test. […] The total distance travelled, and velocity were quantified using an automated video tracking software Ethovision XT for the duration of 10 minutes. A camera, located directly above the centre of the open field, records the session. Locomotor activities were expressed as the total distance travelled and velocity.

[2] = Tg2576 study: bioanalysis; assay type: in vivo, mice
From the text: At termination, animals were given a final dose, and under mild anesthesia, blood was collected retro-orbitally and separated plasma were utilized for bio analysis (G3) and ex vivo analysis. Then animals were euthanized under CO2 asphyxiation and brain tissue was collected and divided into two equal hemispheres. One hemisphere was fixed in 10% NBF for immunohistochemistry and from another hemisphere, dissected cortex and hippocampus was utilized for ex vivo analysis.
At the end of the experiment, animals in group G3 were dosed with the test compound, blood was collected under mild anesthesia, and separated plasma was utilized for drug bioanalysis by LC-MS/MS.

[3] = 50 mg/kg then 80 mg/kg from day 36 p.o., 8th months
[4] = 50 mg/kg then 80 mg/kg from day 36 p.o., 9th months
[5] = 6th months (Basal, before treatment)

## C[C@@H]1CN(Cc2ccc(Nc3nccc(-c4ccc(C(=O)NO)cc4)n3)cc2F)CCO1 [Compound I-16, (R)-4-(2-((3-fluoro-4-((2-methylmorpholino)methyl)phenyl)amino)pyrimidin-4-yl)-N-hydroxybenzamide]
[1]; Day 0
  Body weight: 28.08 ± 0.84
[1]; Day 4
  Body weight: 27.31 ± 0.52
[1]; Day 7
  Body weight: 26.85 ± 0.66
[1]; Day 14
  Body weight: 28.27 ± 0.87
[1]; Day 21
  Body weight: 27.65 ± 0.86
[1]; Day 28
  Body weight: 28.23 ± 1.02
[1]; Day 35
  Body weight: 28.88 ± 0.55
[1]; Day 42
  Body weight: 28.35 ± 0.63
[1]; Day 49
  Body weight: 28.76 ± 0.76
[1]; Day 56
  Body weight: 27.77 ± 0.67
[1]; Day 63
  Body weight: 28.72 ± 1.03
[1]; Day 70
  Body weight: 29.54 ± 0.72
[1]; Day 77
  Body weight: 29.16 ± 0.71
[1]; Day 84
  Body weight: 29.14 ± 0.86
[1]; Day 91
  Body weight: 29.41 ± 0.78
Tg2576 AD Disease Mice; G3 Tg2576 AD disease mice, 50 mg/kg
  Open Field Test: total distance, velocity, time spent in central and peripheral zone compared to G2 (Tg2576 + vehicle): did not show any significant difference
Tg2576 AD Disease Mice; 50 mg/kg p.o., 7th months
  Open Field Test time spent in Central zone: 25.12 ± 12.39
  Open Field Test time spent in Peripheral zone: 574.88 ± 12.39
Tg2576 AD Disease Mice; [3]
  Open Field Test time spent in Central zone: 79.09 ± 28.86
  Open Field Test time spent in Peripheral zone: 520.91 ± 28.86
Tg2576 AD Disease Mice; [4]
  Open Field Test time spent in Central zone: 61.69 ± 12.36
  Open Field Test time spent in Peripheral zone: 538.31 ± 12.36
Tg2576 AD Disease Mice; [5]
  Open Field Test time spent in Central zone: 57.11 ± 12.95
  Open Field Test time spent in Peripheral zone: 537.81 ± 12.63
[2]; G3 Tg2576 mice, end of experiment, 9 hr post dose
  Brain Conc (ng/mL): No Peak
[2]; G3 mice bled at different time points after the water maze test
  plasma concentration time course: time course dependent decrease
[2]; male, mouse, plasma, oral, G3 Tg2576 mice, end of experiment, 2 hr post dose, read-out: Plasma Concentrations
  concentration at 2 h: 106 ± 13.8 ng/mL
[2]; male, mouse, plasma, oral, G3 Tg2576 mice, end of experiment, 4 hr post dose, read-out: Plasma Concentrations
  concentration at 4 h: 32.6 ± 4.75 ng/mL
[2]; male, mouse, plasma, oral, G3 Tg2576 mice, end of experiment, 6 hr post dose, read-out: Plasma Concentrations
  concentration at 6 h: 19 ± 4.16 ng/mL
[2]; male, mouse, plasma, oral, G3 Tg2576 mice, end of experiment, 8 hr post dose, read-out: Plasma Concentrations
  concentration at 8 h: 12.1 ± 2.1 ng/mL
